Test: water solubility
Format: physicochemical
Settings: in water (substance/water)

For `NCCCCCC(=O)O` [6-aminocaproic acid], the solubility was over 500 mg/mL.
